US11655235B2, “Pyrrolidine and piperidine compounds” (YUHAN CORPORATION, priority 2019, dated 2023)

Tests used:
Type in all cases: biochemical
Recombinant human FAP = molecular target: T1, Recombinant human FAP (Homo sapiens, UniProt Q12884); assay: FAP FRET assay, FGF21-sequence FRET peptide substrate; conditions: FRET peptide with human FGF21 sequence, 6 μM, 37° C.
T1 construct: purchased R&D systems
T1 sequence (Q12884 1-760): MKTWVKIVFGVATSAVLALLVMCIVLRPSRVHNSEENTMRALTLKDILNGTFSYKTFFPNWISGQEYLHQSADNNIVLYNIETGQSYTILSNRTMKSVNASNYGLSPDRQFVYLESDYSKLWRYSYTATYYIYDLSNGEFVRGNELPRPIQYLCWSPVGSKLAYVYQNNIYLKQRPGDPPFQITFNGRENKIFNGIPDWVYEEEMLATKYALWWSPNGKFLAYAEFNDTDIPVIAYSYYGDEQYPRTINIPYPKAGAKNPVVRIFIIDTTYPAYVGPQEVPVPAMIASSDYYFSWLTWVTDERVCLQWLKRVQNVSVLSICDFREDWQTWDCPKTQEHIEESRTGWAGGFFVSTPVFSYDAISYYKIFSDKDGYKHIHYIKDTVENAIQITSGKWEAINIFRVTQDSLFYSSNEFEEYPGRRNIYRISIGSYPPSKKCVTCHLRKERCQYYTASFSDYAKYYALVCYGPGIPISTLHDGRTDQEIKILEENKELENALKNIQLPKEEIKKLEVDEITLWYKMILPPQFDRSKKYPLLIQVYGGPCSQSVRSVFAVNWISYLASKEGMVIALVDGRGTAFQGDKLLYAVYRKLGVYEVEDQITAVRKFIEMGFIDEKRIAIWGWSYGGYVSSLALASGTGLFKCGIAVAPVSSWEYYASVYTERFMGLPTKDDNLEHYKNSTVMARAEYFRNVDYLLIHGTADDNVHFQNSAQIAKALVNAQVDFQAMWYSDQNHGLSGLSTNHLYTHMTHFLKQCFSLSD
Summary of the method: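 Recombinant human FAP, 10 ng per reaction, in 50 mM HEPES pH 7.2 with 150 mM NaCl, 0.1 mg/ml BSA, 1 mM EDTA; HyLite Fluor 488/QXL 520 FRET peptide of human FGF21 sequence at 6 μM final, ≤0.1% DMSO, 37° C. IC50 from 8-point curves by four-parameter logistic fit.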

DPP4 = DPP4 (Homo sapiens, UniProt P27487); assay: DPP4 inhibition, fluorogenic substrate H-Gly-Pro-AMC; parameters: purchased R&D Systems; conditions: recombinant human DPP4
recombinant human DPP9 = molecular target: T2, recombinant human DPP9 (Homo sapiens, UniProt Q86TI2); assay: DPP9 inhibition, fluorogenic substrate H-Gly-Pro-AMC; conditions: recombinant human DPP9
T2 construct: purchased R&D Systems
Summary of the method: (§1)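 Enzyme per reaction: 50 ng DPP9, 20 ng DPP8, 10 ng each DPP7 and PREP. Compounds were serially diluted (8 points, up to 0.5% DMSO) and incubated at 25 °C.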

recombinant human PREP = molecular target: T3, recombinant human PREP (Homo sapiens, UniProt P48147); assay: PREP inhibition, fluorogenic substrate Z-Gly-Pro-AMC; conditions: Inhibitory Activity (IC50, nM) PREP, recombinant human PREP
T3 construct: purchased R&D System
T3 sequence (P48147 1-710): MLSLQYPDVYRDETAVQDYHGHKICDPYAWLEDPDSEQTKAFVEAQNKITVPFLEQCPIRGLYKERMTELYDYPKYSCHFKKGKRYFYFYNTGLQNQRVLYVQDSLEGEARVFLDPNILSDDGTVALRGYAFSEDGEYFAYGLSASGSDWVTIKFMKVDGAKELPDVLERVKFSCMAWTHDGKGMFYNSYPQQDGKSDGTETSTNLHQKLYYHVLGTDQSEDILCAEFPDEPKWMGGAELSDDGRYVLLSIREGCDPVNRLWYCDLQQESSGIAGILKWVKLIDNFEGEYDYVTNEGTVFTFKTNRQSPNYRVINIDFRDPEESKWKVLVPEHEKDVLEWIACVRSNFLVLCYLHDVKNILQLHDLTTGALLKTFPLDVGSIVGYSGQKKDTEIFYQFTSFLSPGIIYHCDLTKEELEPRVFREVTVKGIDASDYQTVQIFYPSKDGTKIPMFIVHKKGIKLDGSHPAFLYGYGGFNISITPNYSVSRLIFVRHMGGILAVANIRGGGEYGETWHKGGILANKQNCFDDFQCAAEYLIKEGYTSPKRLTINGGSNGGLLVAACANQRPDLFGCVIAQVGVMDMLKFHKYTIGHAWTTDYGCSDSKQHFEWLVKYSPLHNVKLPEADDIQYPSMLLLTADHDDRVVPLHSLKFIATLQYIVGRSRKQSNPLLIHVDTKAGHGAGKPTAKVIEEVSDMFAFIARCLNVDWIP
Summary of the method: as §1

recombinant human DPP7 = molecular target: T4, recombinant human DPP7 (Homo sapiens, UniProt Q9UHL4); assay: DPP7 inhibition, fluorogenic substrate Lys-Pro-AMC; conditions: recombinant human DPP7
T4 construct: purchased R&D Systems
Summary of the method: as §1

Sequence of DPP4 (P27487 whole entry): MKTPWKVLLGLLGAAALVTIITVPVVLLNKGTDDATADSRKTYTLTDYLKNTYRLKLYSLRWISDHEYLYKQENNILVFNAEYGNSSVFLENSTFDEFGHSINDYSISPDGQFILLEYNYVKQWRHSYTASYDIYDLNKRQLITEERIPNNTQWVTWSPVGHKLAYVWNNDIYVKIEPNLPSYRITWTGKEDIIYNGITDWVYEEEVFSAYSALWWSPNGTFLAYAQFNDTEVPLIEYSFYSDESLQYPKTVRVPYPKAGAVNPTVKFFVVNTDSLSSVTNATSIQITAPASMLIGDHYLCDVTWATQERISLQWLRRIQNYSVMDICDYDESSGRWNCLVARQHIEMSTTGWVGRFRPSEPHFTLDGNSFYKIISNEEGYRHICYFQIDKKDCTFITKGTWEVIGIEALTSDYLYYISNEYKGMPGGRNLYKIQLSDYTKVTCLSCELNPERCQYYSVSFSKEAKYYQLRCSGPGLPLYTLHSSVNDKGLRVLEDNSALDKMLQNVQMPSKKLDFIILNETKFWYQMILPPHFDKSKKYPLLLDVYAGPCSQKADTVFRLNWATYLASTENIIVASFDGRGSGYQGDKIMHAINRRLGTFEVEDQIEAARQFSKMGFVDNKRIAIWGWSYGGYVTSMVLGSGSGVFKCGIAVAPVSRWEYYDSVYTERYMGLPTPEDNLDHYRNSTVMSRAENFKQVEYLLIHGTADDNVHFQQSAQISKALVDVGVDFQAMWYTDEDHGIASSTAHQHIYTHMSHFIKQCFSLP
T2 sequence (Q86TI2 whole entry): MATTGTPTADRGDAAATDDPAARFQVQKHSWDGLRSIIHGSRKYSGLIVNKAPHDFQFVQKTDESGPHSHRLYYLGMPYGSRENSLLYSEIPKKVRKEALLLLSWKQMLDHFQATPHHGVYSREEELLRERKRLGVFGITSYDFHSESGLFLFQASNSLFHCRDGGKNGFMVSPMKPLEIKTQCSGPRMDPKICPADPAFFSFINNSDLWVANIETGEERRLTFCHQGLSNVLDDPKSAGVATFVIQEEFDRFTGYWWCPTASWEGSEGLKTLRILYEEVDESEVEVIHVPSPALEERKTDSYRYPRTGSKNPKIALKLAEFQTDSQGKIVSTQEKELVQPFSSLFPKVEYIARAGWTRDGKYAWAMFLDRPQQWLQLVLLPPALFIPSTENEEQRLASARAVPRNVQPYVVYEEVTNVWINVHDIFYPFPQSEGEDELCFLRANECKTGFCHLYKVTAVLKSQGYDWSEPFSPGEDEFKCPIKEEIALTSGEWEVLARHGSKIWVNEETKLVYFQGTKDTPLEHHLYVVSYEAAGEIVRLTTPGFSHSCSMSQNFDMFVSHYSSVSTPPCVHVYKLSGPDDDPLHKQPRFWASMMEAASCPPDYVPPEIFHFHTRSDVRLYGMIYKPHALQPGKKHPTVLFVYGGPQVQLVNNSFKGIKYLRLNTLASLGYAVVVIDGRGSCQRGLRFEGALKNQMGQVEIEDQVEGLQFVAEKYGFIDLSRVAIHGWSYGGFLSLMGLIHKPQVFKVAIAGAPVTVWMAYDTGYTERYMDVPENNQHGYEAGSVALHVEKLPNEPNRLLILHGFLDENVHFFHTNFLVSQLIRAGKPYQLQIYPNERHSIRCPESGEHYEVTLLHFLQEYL

N#C[C@@H]1CCCN1C(=O)CN1CC[C@H](Nc2ccc(C(=O)Nc3cccnc3)c3ncccc23)C1 [Example 290, N-(3-pyridyl)-5-[[(3S)-1-[2-oxo-2-[(2S)-2-cyanopyrrolidin-1-yl]ethyl]pyrrolidin-3-yl]amino]quinoline-8-carboxamide]
IC50 (Recombinant human FAP): 1.1 nM | IC50 (DPP4): 926 nM | IC50 (recombinant human DPP9): 567 nM | IC50 (recombinant human PREP): 429 nM | IC50 (recombinant human DPP7): 121 nM

N#C[C@@H]1CCCN1C(=O)CN1CC[C@H](Nc2ccc(C(=O)Nc3ccncc3)c3ncccc23)C1 [Example 291, N-(4-pyridyl)-5-[[(3S)-1-[2-oxo-2-[(2S)-2-cyanopyrrolidin-1-yl]ethyl]pyrrolidin-3-yl]amino]quinoline-8-carboxamide]
IC50 (Recombinant human FAP): 4.4 nM | IC50 (DPP4): 12900 nM | IC50 (recombinant human DPP9): 2840 nM | IC50 (recombinant human PREP): 2110 nM | IC50 (recombinant human DPP7): 173 nM

N#C[C@@H]1C[C@H](F)CN1C(=O)CN1CC[C@H](Nc2ccc(C(=O)Nc3ccncc3)c3ncccc23)C1 [Example 292, N-(4-pyridyl)-5-[[(3S)-1-[2-oxo-2-[(2S,4S)-2-cyano-4-fluoro-pyrrolidin-1-yl]ethyl]pyrrolidin-3-yl]amino]quinoline-8-carboxamide]
IC50 (Recombinant human FAP): 1.3 nM | IC50 (DPP4): 5180 nM | IC50 (recombinant human DPP9): 371 nM | IC50 (recombinant human PREP): 1470 nM | IC50 (recombinant human DPP7): 163 nM

N#C[C@@H]1CCCN1C(=O)CN1CC[C@H](Nc2ccc(C(=O)Nc3ccccn3)c3ncccc23)C1 [Example 293, N-(2-pyridyl)-5-[[(3S)-1-[2-oxo-2-[(2S)-2-cyanopyrrolidin-1-yl]ethyl]pyrrolidin-3-yl]amino]quinoline-8-carboxamide]
IC50 (Recombinant human FAP): 0.8 nM | IC50 (DPP4): 2670 nM | IC50 (recombinant human DPP9): 1250 nM | IC50 (recombinant human PREP): 422 nM | IC50 (recombinant human DPP7): 122 nM

N#C[C@@H]1C[C@H](F)CN1C(=O)CN1CC[C@H](Nc2ccc(C(=O)Nc3cccnc3)c3ncccc23)C1 [Example 295, N-(3-pyridyl)-5-[[(3S)-1-[2-oxo-2-[(2S,4S)-2-cyano-4-fluoro-pyrrolidin-1-yl]ethyl]pyrrolidin-3-yl]amino]quinoline-8-carboxamide]
IC50 (Recombinant human FAP): 0.7 nM | IC50 (DPP4): 865 nM | IC50 (recombinant human DPP9): 87.8 nM | IC50 (recombinant human PREP): 724 nM | IC50 (recombinant human DPP7): 64.1 nM

CC(=O)Nc1ccc(N[C@H]2CCN(CC(=O)N3CCC[C@H]3C#N)C2)c2cccnc12 [Example 296, N-[5-[[(3S)-1-[2-oxo-2-[(2S)-2-cyanopyrrolidin-1-yl]ethyl]pyrrolidin-3-yl]amino]-8-quinolyl]acetamide]
IC50 (Recombinant human FAP): 4.7 nM | IC50 (DPP4): 15600 nM | IC50 (recombinant human DPP9): 10600 nM | IC50 (recombinant human PREP): 6440 nM | IC50 (recombinant human DPP7): 142 nM

CC(=O)Nc1ccc(N[C@H]2CCN(CC(=O)N3C[C@@H](F)C[C@H]3C#N)C2)c2cccnc12 [Example 297, N-[5-[[(3S)-1-[2-oxo-2-[(2S,4S)-2-cyano-4-fluoro-pyrrolidin-1-yl]ethyl]pyrrolidin-3-yl]amino]-8-quinolyl]acetamide]
IC50 (Recombinant human FAP): 2.9 nM | IC50 (DPP4): 2810 nM | IC50 (recombinant human DPP9): 4200 nM | IC50 (recombinant human PREP): 4750 nM | IC50 (recombinant human DPP7): 13.5 nM

N#C[C@@H]1C[C@H](F)CN1C(=O)CN1CC[C@H](Nc2ccc(NC(=O)c3ccccc3)c3ncccc23)C1 [Example 298, N-[5-[[(3S)-1-[2-oxo-2-[(2S,4S)-2-cyano-4-fluoro-pyrrolidin-1-yl]ethyl]pyrrolidin-3-yl]amino]-8-quinolyl]benzamide]
IC50 (Recombinant human FAP): 2.1 nM | IC50 (DPP4): 1860 nM | IC50 (recombinant human DPP9): 3070 nM | IC50 (recombinant human PREP): 6520 nM | IC50 (recombinant human DPP7): 257 nM

CCN(c1cnc2ccccc2c1)C1CCN(CC(=O)N2CCC[C@H]2C#N)CC1 [Example 302, (2S)-1-[2-[4-[ethyl(3-quinolyl)amino]-1-piperidyl]acetyl]pyrrolidine-2-carbonitrile]
IC50 (Recombinant human FAP): 22.2 nM | IC50 (DPP4): ≥ 100000 nM | IC50 (recombinant human DPP9): ≥ 100000 nM | IC50 (recombinant human PREP): 350 nM | IC50 (recombinant human DPP7): 7350 nM

CCN(c1ccc2ncccc2c1)C1CCN(CC(=O)N2CCC[C@H]2C#N)CC1 [Example 303, (2S)-1-[2-[4-[ethyl(6-quinolyl)amino]-1-piperidyl]acetyl]pyrrolidine-2-carbonitrile]
IC50 (Recombinant human FAP): 9.2 nM | IC50 (DPP4): ≥ 100000 nM | IC50 (recombinant human DPP9): ≥ 100000 nM | IC50 (recombinant human PREP): 483 nM | IC50 (recombinant human DPP7): 1940 nM

CCN(c1cnc2ccccc2c1)C1CCN(CC(=O)N2C[C@@H](F)C[C@H]2C#N)CC1 [Example 304, (2S,4S)-1-[2-[4-[ethyl(3-quinolyl)amino]-1-piperidyl]acetyl]-4-fluoro-pyrrolidine-2-carbonitrile]
IC50 (Recombinant human FAP): 8 nM | IC50 (DPP4): 18800 nM | IC50 (recombinant human DPP9): 7600 nM | IC50 (recombinant human PREP): 117 nM | IC50 (recombinant human DPP7): 1050 nM

CCN(c1ccc2ncccc2c1)C1CCN(CC(=O)N2C[C@@H](F)C[C@H]2C#N)CC1 [Example 306, (2S,4S)-1-[2-[4-[ethyl(6-quinolyl)amino]-1-piperidyl]acetyl]-4-fluoro-pyrrolidine-2-carbonitrile]
IC50 (Recombinant human FAP): 4.4 nM | IC50 (DPP4): 24300 nM | IC50 (recombinant human DPP9): 13200 nM | IC50 (recombinant human PREP): 129 nM | IC50 (recombinant human DPP7): 477 nM

CCOc1ccc(NC2CCN(CC(=O)N3C[C@@H](F)C[C@H]3C#N)CC2)c2cccnc12 [Example 371, (2S,4S)-1-[2-[4-[(8-ethoxy-5-quinolyl)amino]-1-piperidyl]acetyl]-4-fluoro-pyrrolidine-2-carbonitrile]
IC50 (Recombinant human FAP): 7 nM | IC50 (DPP4): 4570 nM | IC50 (recombinant human DPP9): 5200 nM | IC50 (recombinant human PREP): 4910 nM | IC50 (recombinant human DPP7): 307 nM

N#C[C@@H]1C[C@H](F)CN1C(=O)CN1CCC(Nc2cccc3ncsc23)CC1 [Example 372, (2S,4S)-1-[2-[4-(1,3-benzothiazol-7-ylamino)-1-piperidyl]acetyl]-4-fluoro-pyrrolidine-2-carbonitrile]
IC50 (Recombinant human FAP): 51.6 nM | IC50 (DPP4): 1650 nM | IC50 (recombinant human DPP9): 945 nM | IC50 (recombinant human PREP): 2000 nM | IC50 (recombinant human DPP7): 645 nM

N#C[C@@H]1C[C@H](F)CN1C(=O)CN1CCC(Nc2cc(Cl)c3ncccc3c2)CC1 [Example 376, (2S,4S)-1-[2-[4-[(8-chloro-6-quinolyl)amino]-1-piperidyl]acetyl]-4-fluoro-pyrrolidine-2-carbonitrile]
IC50 (Recombinant human FAP): 7 nM | IC50 (DPP4): 3510 nM | IC50 (recombinant human DPP9): 4370 nM | IC50 (recombinant human PREP): 870 nM | IC50 (recombinant human DPP7): 226 nM

CNC(=O)c1ccc(NC2CCN(CC(=O)N3C[C@@H](F)C[C@H]3C#N)CC2)c2cccnc12 [Example 390, N-methyl-5-[[1-[2-oxo-2-[(2S,4S)-2-cyano-4-fluoro-pyrrolidin-1-yl]ethyl]-4-piperidyl]amino]quinoline-8-carboxamide]
IC50 (Recombinant human FAP): 5.9 nM | IC50 (DPP4): 1520 nM | IC50 (recombinant human DPP9): 1320 nM | IC50 (recombinant human PREP): 1420 nM | IC50 (recombinant human DPP7): 358 nM

N#C[C@@H]1C[C@H](F)CN1C(=O)CN1CCC(Nc2ccc(C(=O)Nc3ccccc3)c3ncccc23)CC1 [Example 394, 5-[[1-[2-oxo-2-[(2S,4S)-2-cyano-4-fluoro-pyrrolidin-1-yl]ethyl]-4-piperidyl]amino]-N-phenyl-quinoline-8-carboxamide]
IC50 (Recombinant human FAP): 1.3 nM | IC50 (DPP4): 2540 nM | IC50 (recombinant human DPP9): 1090 nM | IC50 (recombinant human PREP): 421 nM | IC50 (recombinant human DPP7): 361 nM
